{"source": "patent US20240180893A1", "about": "“METHODS OF TREATMENT OF BREAST CANCER” (AstraZeneca AB, priority 2022, published 2024)", "key": {"[1]": {"test_system": "HR+, HER2− metastatic or loco-regionally recurrent breast cancer", "assay": "SERENA-2 phase 2 study: clinical benefit rate at 24 weeks (CBR24)", "format": "in vivo, human (post-menopausal women)", "details": "for Adjusted CBR24 rate (%): logistic regression, factors prior CDK4/6 inhibitor and lung and/or liver metastasis; for CBR24: comparison against fulvestrant, odds ratio: odds ratio > 1 favors AZD9833", "from_the_text": "(§1) The CBR24 is defined as the percentage of patients who have a best objective response (BoR) of CR or PR in the first 25 weeks (to allow for a late assessment within the assessment window) or who have SD (without subsequent cancer therapy) for at least 23 weeks after start of treatment (to allow for an early assessment within the assessment window). The CBR is defined based on the Investigator's assessment of RECIST 1.1.\nThe CBR24 will be summarised by treatment group and analysed using a logistic regression model (similarly to the analysis for the ORR).\nas §1, with “Secondary endpoints: clinical benefit rate at 24 weeks. The CBR24” for “The CBR24”, “The CBR will be defined based” for “The CBR is defined based”, “assessment of RECIST, and will be summarised by treatment group and analysed using a logistic regression model (similarly to the analysis for the ORR).” for “assessment of RECIST 1.1.”"}, "[2]": {"test_system": "HR+, HER2− metastatic or loco-regionally recurrent breast cancer", "assay": "SERENA-2 phase 2 study: progression free survival (PFS), RECIST 1.1, assessed by Investigator", "format": "in vivo, human (post-menopausal women)", "from_the_text": "In embodiments of the present speciation the method of treatments, ngSERD for use in treatment or for use in the manufacture of a medicament, kit or pharmaceutical composition for use delivers an improvement in the time to disease progression or progression free survival (PFS) relative to that obtained from use of fulvestrant (the first generation SERD). In such embodiment the PFS improvement is relative to that observed with standard of care, i.e. fulvestrant administered at the approved dose of 500 mg once monthly by injection. Clinical activity as assessed by PFS can be determined by the standard assessment of tumour response as per RECIST 1.1 (Eisenhauser et al., Eur J Cancer 2009 January; 45(2):228-47). The RECIST criteria can be evaluated by the treating physician/investigator or by Blinded Independent Central Review (BICR).\nIn the SERENA-2 clinical trial, further details of which are provided below, the efficacy of camizestrant administered once daily in tablet form at doses of 75 mg and 150 mg as a treatment for patients with HR+, HER2− metastatic or loco-regionally recurrent breast cancer that the breast cancer has recurred or progressed following at least one prior line of endocrine therapy was assessed. The control arm patient in this study were treated with standard of care fulvestrant, the first generation SERD, administered as once monthly 500 mg injection. The study was powered to differentiate between the camizestrant and standard of care, fulvestrant (F), treatment arms, but was not powered to differentiate between the 75 mg and 150 mg camizestrant dose cohorts.\nA randomised, open-label, parallel-group, multicentre phase 2 study comparing the efficacy and safety of oral AZD9833 versus fulvestrant in women with advanced er-positive her2-negative breast cancer was carried out according to the following protocol and schedule of activities. The study evaluated the efficacy and safety of AZD9833 (75, 150 and 300 mg, oral [PO]) administered once daily as a monotherapy in comparison with fulvestrant administered according to its label (i. e., slow IM injection into the buttocks [1 to 2 minutes per injection] as two 5-mL injections, 1 in each buttock, on Day 1, Day 15, Day 29 and 4-weekly thereafter).\nThis is a randomised, open-label, parallel-group, multicentre Phase 2 study to compare the efficacy and safety of daily PO AZD9833 versus IM fulvestrant in women with advanced ER positive HER2 negative breast cancer. Post-menopausal women with histologically or cytologically confirmed metastatic or loco-regionally recurrent disease before randomisation and fulfilling all of the inclusion criteria and none of the exclusion criteria will be included. Randomisation will be stratified according to the prior use of CDK4/6 inhibitors and the presence of liver and/or lung metastases.\nAfter the screening visit and confirmation of eligibility, patients will be randomly assigned in a 1:1:1:1 ratio to receive 1 of the following 4 treatments, consisting in 4-week treatment cycles until disease progression (assessed by the Investigator as defined by Response Evaluation Criteria in Solid Tumours [RECIST] version 1.1): • AZD9833 (75 mg, PO, once daily) • AZD9833 (150 mg, PO, once daily) • AZD9833 (300 mg, PO, once daily) • Fulvestrant (500 mg IM, Day 1, Day 15, Day 29, and 4-weekly thereafter)\nEfficacy assessments. Assessment of tumour response. The assessment of tumour response per RECIST version 1.1 will be used to determine the clinical activity (assessed by PFS) and anti-tumour activity (assessed by ORR, clinical benefit rate [CBR]) of AZD9833 and fulvestrant.\nInvestigator's assessment of tumour response per RECIST version 1.1. Tumour response will be assessed by the Investigators per RECIST version 1.1 (Eisenhauer et al. 2009). From the Investigator's review of the imaging scans, the evaluation of TLs, NTLs and new lesions will be used to determine the overall visit response for each patient. […]"}, "[3]": {"details": "camizestrant 75 mg once daily, all patients, by Investigator"}, "[4]": {"details": "camizestrant 75 mg, subgroup with metastases to the liver and/or lungs"}, "[5]": {"details": "camizestrant 75 mg, subgroup with prior CDK4/6 inhibitor therapy"}, "[6]": {"details": "camizestrant 150 mg once daily, all patients, by Investigator"}, "[7]": {"details": "camizestrant 150 mg, subgroup with metastases to the liver and/or lungs"}, "[8]": {"details": "camizestrant 150 mg, subgroup with prior CDK4/6 inhibitor therapy"}, "[9]": {"details": "fulvestrant 500 mg once monthly injection, all patients, by Investigator"}, "[10]": {"details": "fulvestrant 500 mg, ESR1m subgroup"}, "[11]": {"details": "fulvestrant 500 mg, subgroup with metastases to the liver and/or lungs"}, "[12]": {"details": "fulvestrant 500 mg, subgroup with prior CDK4/6 inhibitor therapy"}}, "data": [{"compound": "C[C@@H]1Cc2c(ccc3[nH]ncc23)[C@@H](c2ccc(NC3CN(CCCF)C3)cn2)N1CC(F)(F)F", "note": "[camizestrant, N-(1-(3-fluoropropyl)azetidin-3-yl)-6-((6S,8R)-8-methyl-7-(2,2,2-trifluoroethyl)-6,7,8,9-tetrahydro-3H-pyrazolo[4,3-f]isoquinolin-6-yl)pyridin-3-amine]", "values": [{"measurement": "(%) of patients with clinical benefit at 24 weeks", "setting": "[1]; AZD9833 75 mg", "value": 48.6, "unit": "%"}, {"measurement": "Number of patients with clinical benefit at 24 weeks", "setting": "[1]; AZD9833 75 mg, N=70 evaluable", "value": 34}, {"measurement": "Adjusted CBR24 rate (%)", "setting": "[1]; AZD9833 75 mg", "value": 50.4, "unit": "%"}, {"measurement": "CBR24: comparison against fulvestrant, odds ratio", "setting": "[1]; AZD9833 75 mg", "value": 1.73}, {"measurement": "(%) of patients with clinical benefit at 24 weeks", "setting": "[1]; AZD9833 150 mg", "value": 52.3, "unit": "%"}, {"measurement": "Number of patients with clinical benefit at 24 weeks", "setting": "[1]; AZD9833 150 mg, N=65 evaluable", "value": 34}, {"measurement": "Adjusted CBR24 rate (%)", "setting": "[1]; AZD9833 150 mg", "value": 55.2, "unit": "%"}, {"measurement": "CBR24: comparison against fulvestrant, odds ratio", "setting": "[1]; AZD9833 150 mg", "value": 2.09}, {"measurement": "PFS events [no.]", "setting": "[2]; AZD9833 75 mg (n = 22), subgroup with mutation to the estrogen receptor (ESR1m)", "value": 15}, {"measurement": "Hazard ratio vs fulvestrant", "setting": "[2]; AZD9833 75 mg, ESR1m subgroup", "value": 0.33}, {"measurement": "Median PFS", "setting": "[2]; AZD9833 75 mg, ESR1m subgroup", "value": 6.3, "unit": "months"}, {"measurement": "PFS events (%)", "setting": "[2]; AZD9833 75 mg, ESR1m subgroup", "value": "(68.2) %"}, {"measurement": "PFS events [no.]", "setting": "[2]; AZD9833 150 mg (n = 26), subgroup with mutation to the estrogen receptor (ESR1m)", "value": 22}, {"measurement": "Hazard ratio vs fulvestrant", "setting": "[2]; AZD9833 150 mg, ESR1m subgroup", "value": 0.55}, {"measurement": "Median PFS", "setting": "[2]; AZD9833 150 mg, ESR1m subgroup", "value": 9.2, "unit": "months"}, {"measurement": "PFS events (%)", "setting": "[2]; AZD9833 150 mg, ESR1m subgroup", "value": "(84.6) %"}, {"measurement": "Improvement of PFS over fulvestrant", "setting": "[2]; both camizestrant arms (75 mg and 150 mg), all comer population, by either Investigator or BICR", "value": "at least 3.5 months"}, {"measurement": "PFS events [n]", "setting": "[2]; camizestrant 75 mg (n = 38), subgroup with prior CDK4/6 inhibitor therapy", "value": 29}, {"measurement": "PFS events [no.]", "setting": "[2]; camizestrant 75 mg (n = 43), subgroup with metastases to the liver and/or lungs", "value": 31}, {"measurement": "Hazard ratio for disease progression relative to fulvestrant", "setting": "[2]; [3]", "value": 0.58}, {"measurement": "Proportion of patients without progression at 12 m", "setting": "[2]; [3]", "value": 34.3, "unit": "%"}, {"measurement": "Median PFS", "setting": "[2]; camizestrant 75 mg tablet once daily, all patients, by Investigator", "value": 7.2, "unit": "months"}, {"measurement": "Hazard ratio vs fulvestrant", "setting": "[2]; [4]", "value": 0.43}, {"measurement": "Median PFS", "setting": "[2]; [4]", "value": 7.2, "unit": "months"}, {"measurement": "PFS events (%)", "setting": "[2]; [4]", "value": "(72.1) %"}, {"measurement": "Hazard ratio vs fulvestrant", "setting": "[2]; [5]", "value": 0.49}, {"measurement": "Median PFS", "setting": "[2]; [5]", "value": 5.5, "unit": "months"}, {"measurement": "PFS events (%)", "setting": "[2]; [5]", "value": "(76.3) %"}, {"measurement": "PFS events [n]", "setting": "[2]; camizestrant 150 mg (n = 37), subgroup with prior CDK4/6 inhibitor therapy", "value": 29}, {"measurement": "PFS events [no.]", "setting": "[2]; camizestrant 150 mg (n = 43), subgroup with metastases to the liver and/or lungs", "value": 32}, {"measurement": "Hazard ratio for disease progression relative to fulvestrant", "setting": "[2]; [6]", "value": 0.67}, {"measurement": "Proportion of patients without progression at 12 m", "setting": "[2]; [6]", "value": 44.5, "unit": "%"}, {"measurement": "Median PFS", "setting": "[2]; camizestrant 150 mg tablet once daily, all patients, by Investigator", "value": 7.7, "unit": "months"}, {"measurement": "Hazard ratio vs fulvestrant", "setting": "[2]; [7]", "value": 0.55}, {"measurement": "Median PFS", "setting": "[2]; [7]", "value": 5.6, "unit": "months"}, {"measurement": "PFS events (%)", "setting": "[2]; [7]", "value": "(74.4) %"}, {"measurement": "Hazard ratio vs fulvestrant", "setting": "[2]; [8]", "value": 0.68}, {"measurement": "Median PFS", "setting": "[2]; [8]", "value": 3.8, "unit": "months"}, {"measurement": "PFS events (%)", "setting": "[2]; [8]", "value": "(78.4) %"}]}, {"compound": "C[C@]12CC[C@@H]3c4ccc(O)cc4C[C@@H](CCCCCCCCC[S+]([O-])CCCC(F)(F)C(F)(F)F)[C@H]3[C@@H]1CC[C@@H]2O", "note": "(some centres unmarked) [fulvestrant, reference compound]", "values": [{"measurement": "(%) of patients with clinical benefit at 24 weeks", "setting": "[1]; fulvestrant", "value": 36.8, "unit": "%"}, {"measurement": "Number of patients with clinical benefit at 24 weeks", "setting": "[1]; fulvestrant, N=68 evaluable", "value": 25}, {"measurement": "Adjusted CBR24 rate (%)", "setting": "[1]; fulvestrant", "value": 37.1, "unit": "%"}, {"measurement": "PFS events [no.]", "setting": "[2]; fulvestrant 500 mg (n = 35), subgroup with mutation to the estrogen receptor (ESR1m)", "value": 31}, {"measurement": "PFS events [n]", "setting": "[2]; fulvestrant 500 mg (n = 37), subgroup with prior CDK4/6 inhibitor therapy", "value": 33}, {"measurement": "PFS events [no.]", "setting": "[2]; fulvestrant 500 mg (n = 43), subgroup with metastases to the liver and/or lungs", "value": 39}, {"measurement": "Median PFS", "setting": "[2]; [9]", "value": 3.7, "unit": "months"}, {"measurement": "Proportion of patients without progression at 12 m", "setting": "[2]; [9]", "value": 23.8, "unit": "%"}, {"measurement": "Median PFS", "setting": "[2]; [10]", "value": 2.2, "unit": "months"}, {"measurement": "PFS events (%)", "setting": "[2]; [10]", "value": "(88.6) %"}, {"measurement": "Median PFS", "setting": "[2]; [11]", "value": 2.0, "unit": "months"}, {"measurement": "PFS events (%)", "setting": "[2]; [11]", "value": "(90.7) %"}, {"measurement": "Median PFS", "setting": "[2]; [12]", "value": 2.1, "unit": "months"}, {"measurement": "PFS events (%)", "setting": "[2]; [12]", "value": "(89.2) %"}]}]}
